What was measured:
VGFR2 (KDR) = biological target: T1, VGFR2 (KDR) (Homo sapiens, UniProt P35968); test: flashplate kinase assay, phosphorylation of Biotin-poly-Glu-Tyr (4:1) by VGFR2 (KDR); type: biochemical
T1 construct: The catalytic sections of the corresponding tyrosine kinases are preferably expressed as GST fusion proteins; GST
Experimental: (§1) The biological activity of N-oxide compounds according the invention are tested in one or more standard kinase assay systems as described in the art. Preferably, the compounds according the invention are tested in a kinase assay as described below, or in analogous manner thereof:
(§2) In this assay the inhibitory action of the compounds according to the invention on the phosphorylation of the substrates Biotin-poly-Glu-Tyr (4:1) by VGFR2 (KDR) or poly-Glu-Tyr (4:1) by Tie-2, respectively, is tested. In the wells of a streptavidin-coated microtiter flashplate, VEGFR2, or a microtiter flashplate, Tie-2, respectively, phosphorylate the substrates in the presence of ATPyS and small amounts of radioactive ^33P-ATP. Phosphorylated substrates bind during enzymatic reaction to the walls of the wells. The phosphorylation reaction is stopped by addition of a stopping reagent, the liquid is removed from the wells and the wells are rinsed. The amount of radioactivity incorporated into the substrate bound to the well is then measured. The reaction is done in presence of different concentrations of the compound and in absence of the compound. The inhibitory action of the compounds according to the invention is determined on the basis of the ratio of radioactivity found in the presence of a compound according to the invention in comparison to the radioactivity found in the enzymatic reaction in the absence of a compound according to the invention. The catalytic sections of the corresponding tyrosine kinases are preferably expressed as GST fusion proteins.
(§3) 100 μL of the compound to be tested are applied to a well (starting concentration: 1E-3 mol/L in 100% DMSO); the dilution for the determination of the IC 50 values is performed on a BiomekFX robot in 10 steps (range of concentration is 1E-5 to 1E-10 mol/L in the assay, i.e. 1E-5, 1E-6, 3E-7, 1E-7, 3E-8, 1E-8, 3E-9, 1E-9, 3E-10, 1E-10 mol/L).

Tie-2 = biological target: T2, Tie-2 (Homo sapiens, UniProt Q02763); test: flashplate kinase assay, phosphorylation of poly-Glu-Tyr (4:1) by Tie-2; type: biochemical; details: read-out: TIE2 [IC50]
T2 construct: The catalytic sections of the corresponding tyrosine kinases are preferably expressed as GST fusion proteins; GST
Experimental: as §1, §2, §3

[1] = Stability against oxygen in air; type: physicochemical; details: dissolved either in DMSO/water or in acetic acid/water, stirred on air for more than a week
From the text: Stability Against Oxygen in Air
The compounds • 4-{4-[3-(2-[1,2,4]Triazol-1-yl-5-trifluoromethyl-phenyl)-ureido]-phenoxy}-pyridine-2-carboxylic acid methylamide, • 4-{4-[3-(2-[1,2,3]Triazol-1-yl-5-trifluoromethyl-phenyl)-ureido]-phenoxy}-pyridine-2-carboxylic acid methylamide, 525946 • 4-{4-[3-(2-Imidazol-1-yl-5-trifluoromethyl-phenyl)-ureido]-phenoxy}-pyridine-2-carboxylic acid methylamide, and • 1-[4-(Pyridin-4-yloxy)-phenyl]-3-(2-[1,2,4]triazol-1-yl-5-trifluoromethyl-phenyl)-urea, respectively, were dissolved either in DMSO/water or in acetic acid/water and stirred on air for more than a week.

T1 sequence (P35968 834-1162 limits assumed): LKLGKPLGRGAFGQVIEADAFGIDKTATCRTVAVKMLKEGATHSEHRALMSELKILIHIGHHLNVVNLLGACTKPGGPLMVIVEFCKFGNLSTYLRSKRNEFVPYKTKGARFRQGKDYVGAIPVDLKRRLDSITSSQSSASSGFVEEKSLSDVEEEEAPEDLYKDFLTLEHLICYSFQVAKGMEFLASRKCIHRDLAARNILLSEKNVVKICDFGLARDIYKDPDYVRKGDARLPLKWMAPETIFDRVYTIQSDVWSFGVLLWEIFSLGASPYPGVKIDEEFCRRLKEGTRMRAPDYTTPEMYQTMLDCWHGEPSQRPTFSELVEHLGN
T2 sequence (Q02763 824-1096 limits assumed): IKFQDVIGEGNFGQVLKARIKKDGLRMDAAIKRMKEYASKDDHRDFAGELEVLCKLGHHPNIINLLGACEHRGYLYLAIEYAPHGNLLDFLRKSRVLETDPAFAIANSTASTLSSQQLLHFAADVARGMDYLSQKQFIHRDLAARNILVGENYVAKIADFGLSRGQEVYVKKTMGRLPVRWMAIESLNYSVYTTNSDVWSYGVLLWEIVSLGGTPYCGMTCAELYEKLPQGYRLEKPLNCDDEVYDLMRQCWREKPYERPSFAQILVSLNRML

IC50 (VGFR2 (KDR)) | IC50 (Tie-2) | Compound | N-oxide formation on air [1]
0.056 µM | 0.049 µM | CNC(=O)c1cc(Oc2ccc(NC(=O)Nc3cc(C(F)(F)F)ccc3-n3ccnc3)cc2)cc[n+]1[O-] [Compound 13, 4-{4-[3-(2-Imidazol-1-yl-5-trifluoromethyl-phenyl)-ureido]-phenoxy}-1-oxy-pyridine-2-carboxylic acid methylamide] | 
0.014 µM | 0.052 µM | CNC(=O)c1cc(Oc2ccc(NC(=O)Nc3cc(C(F)(F)F)ccc3-n3cncn3)cc2)cc[n+]1[O-] [Compound 11, 1-Oxy-4-{4-[3-(2-[1,2,4]triazol-1-yl-5-trifluoromethyl-phenyl)-ureido]-phenoxy}-pyridine-2-carboxylic acid methylamide] | 
1.2 µM | 0.74 µM | O=C(Nc1ccc(Oc2cc[n+]([O-])cc2)cc1)Nc1cc(C(F)(F)F)ccc1-n1cncn1 [Compound 14, 1-[4-(1-Oxy-pyridin-4-yloxy)-phenyl]-3-(2-[1,2,4]triazol-1-yl-5-trifluoromethyl-phenyl)-urea] | 
 |  | CNC(=O)c1cc(Oc2ccc(NC(=O)Nc3cc(C(F)(F)F)ccc3-n3cncn3)cc2)ccn1 [4-{4-[3-(2-[1,2,4]Triazol-1-yl-5-trifluoromethyl-phenyl)-ureido]-phenoxy}-pyridine-2-carboxylic acid methylamide] | No N-oxide formation could be detected
 |  | CNC(=O)c1cc(Oc2ccc(NC(=O)Nc3cc(C(F)(F)F)ccc3-n3ccnn3)cc2)ccn1 [4-{4-[3-(2-[1,2,3]Triazol-1-yl-5-trifluoromethyl-phenyl)-ureido]-phenoxy}-pyridine-2-carboxylic acid methylamide] | No N-oxide formation could be detected
 |  | O=C(Nc1ccc(Oc2ccncc2)cc1)Nc1cc(C(F)(F)F)ccc1-n1cncn1 [1-[4-(Pyridin-4-yloxy)-phenyl]-3-(2-[1,2,4]triazol-1-yl-5-trifluoromethyl-phenyl)-urea] | No N-oxide formation could be detected
0.049 µM | 0.03 µM | CNC(=O)c1cc(Oc2ccc(NC(=O)Nc3cc(C(F)(F)F)ccc3-n3ccnn3)cc2)cc[n+]1[O-] [Compound 12, 1-Oxy-4-{4-[3-(2-[1,2,3]triazol-1-yl-5-trifluoromethyl-phenyl)-ureido]-phenoxy}-pyridine-2-carboxylic acid methylamide] | 
 |  | CNC(=O)c1cc(Oc2ccc(NC(=O)Nc3cc(C(F)(F)F)ccc3-n3ccnc3)cc2)ccn1 [4-{4-[3-(2-Imidazol-1-yl-5-trifluoromethyl-phenyl)-ureido]-phenoxy}-pyridine-2-carboxylic acid methylamide] | No N-oxide formation could be detected

— patent US20090124633A1, “N-OXIDES OF HETEROCYCLIC SUBSTITUTED BISARYLUREAS FOR TREATING KINASE-MEDIATED DISEASES” (priority 2006, published 2009)
